Results published in patent US12195482B1 (Arcus Biosciences, Inc., priority 2022, dated 2025).

Legend:
[1] = molecular target: T1, p-AXL (Homo sapiens, UniProt P30530); assay: Axl phosphorylation inhibition ELISA in HEK293T cells transfected with NanoLuc-tagged AXL; format: cell-based; conditions: 1 h compound incubation, media (OptiMEM)
T1 construct: expressed in transfected cells; host or cells: HEK293T
T1 sequence (P30530 26-894): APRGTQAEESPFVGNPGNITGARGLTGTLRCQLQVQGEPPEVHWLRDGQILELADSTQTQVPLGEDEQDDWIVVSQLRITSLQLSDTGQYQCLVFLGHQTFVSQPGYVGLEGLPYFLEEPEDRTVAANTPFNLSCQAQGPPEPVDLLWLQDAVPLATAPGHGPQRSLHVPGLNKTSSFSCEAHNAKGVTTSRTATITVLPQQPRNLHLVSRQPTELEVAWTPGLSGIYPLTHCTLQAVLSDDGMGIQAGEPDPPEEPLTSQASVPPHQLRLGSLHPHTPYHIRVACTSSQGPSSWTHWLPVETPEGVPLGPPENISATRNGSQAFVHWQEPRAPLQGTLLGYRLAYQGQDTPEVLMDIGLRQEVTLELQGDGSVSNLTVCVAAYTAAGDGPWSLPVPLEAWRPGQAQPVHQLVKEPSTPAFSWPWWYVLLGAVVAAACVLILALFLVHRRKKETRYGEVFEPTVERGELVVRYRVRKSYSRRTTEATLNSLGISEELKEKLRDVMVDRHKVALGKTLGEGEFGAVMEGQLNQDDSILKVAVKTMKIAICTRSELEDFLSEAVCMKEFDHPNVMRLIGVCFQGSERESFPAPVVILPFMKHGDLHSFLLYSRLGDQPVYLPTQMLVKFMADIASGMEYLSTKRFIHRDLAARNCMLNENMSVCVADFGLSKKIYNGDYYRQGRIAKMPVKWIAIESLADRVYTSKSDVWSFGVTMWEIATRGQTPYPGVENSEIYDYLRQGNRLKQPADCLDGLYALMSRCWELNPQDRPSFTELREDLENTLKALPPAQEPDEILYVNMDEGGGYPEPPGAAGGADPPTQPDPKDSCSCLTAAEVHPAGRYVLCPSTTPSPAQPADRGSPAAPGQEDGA
Procedure, shortened: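 Phospho-AXL detected by luminescence of NanoLuc tag after capture of cell lysate on biotinylated anti-phospho-tyrosine mAb plates (2 h). Lysates came from transiently transfected HEK293T cells treated 1 h at 37° C with serial 2-fold dilutions (22 points). IC50 by standard 4-parameter logistic fitting.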

[2] = molecular target: T2, Axl (Homo sapiens, UniProt P30530); assay: Biochemical potency, HTRF KinEASE-TK kinase assay; design: purchased Invitrogen; conditions: 5 nM AXL, 700 μM ATP
T2 sequence (P30530 26-894): T1 sequence (P30530 26-894)
Procedure, shortened: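 Steps: compound plus kinase, 1 h RT; add ATP (700 µM final) and biotin-TK substrate (800 nM final); run 2 h RT; stop into streptavidin-XL665/anti-phospho cryptate detection mix, 1 h; read 665/620. AXL at 5 nM, TYRO3 and MER at 1 nM.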

| SMILES | IC50 [1] | IC50 [2] |
| --- | --- | --- |
| c1ccc(-c2ccc(-c3c[nH]c4ncc(-c5ccc6c(c5)CC[C@@H](N[C@H]5CCCOC5)CC6)cc34)cc2)nc1 [Example 32, (3S)—N-[(7S)-3-[3-(4-Pyridin-2-ylphenyl)-1H-pyrrolo[2,3-b]pyridin-5-yl]-6,7,8,9-tetrahydro-5H-benzo[7]annulen-7-yl]oxan-3-amine] | 100 to 1000 nM | < 100 nM |
| Cc1ccccc1-c1ccc(-c2n[nH]c3ncc(-c4ccc5c(c4)CC[C@@H](N4C6COCC4C6)CC5)cc23)nc1 [Example 98, 6-[(7S)-2-{3-[5-(2-Methylphenyl)pyridin-2-yl]-1H-pyrazolo[3,4-b]pyridin-5-yl}-6,7,8,9-tetrahydro-5H-benzo[7]annulen-7-yl]-3-oxa-6-azabicyclo[3.1.1]heptane] | 100 to 1000 nM | < 100 nM |
| Cc1cccnc1-c1ccc(-c2c[nH]c3ncc(-c4ccc5c(c4)CC[C@@H](N4C[C@@H]6C[C@H]4CO6)CC5)cc23)cc1 [Example 187, (4S)-5-[(7S)-2-{3-[4-(3-Methylpyridin-2-yl)phenyl]-1H-pyrrolo[2,3-b]pyridin-5-yl}-6,7,8,9-tetrahydro-5H-benzo[7]annulen-7-yl]-2-oxa-5-azabicyclo[2.2.1]heptane] | < 100 nM | < 100 nM |
| CCc1cccnc1-c1ccc(-c2n[nH]c3ncc(-c4ccc5c(c4)CC[C@@H](N4C6COCC4C6)CC5)cc23)cc1 [Example 182, 6-[(7S)-2-{3-[4-(3-Ethylpyridin-2-yl)phenyl]-1H-pyrazolo[3,4-b]pyridin-5-yl}-6,7,8,9-tetrahydro-5H-benzo[7]annulen-7-yl]-3-oxa-6-azabicyclo[3.1.1]heptane] | < 100 nM | < 100 nM |
| O=C1CCCN1c1cccnc1-c1ccc(-c2n[nH]c3ncc(-c4ccc5c(c4)CC[C@@H](N4C6COCC4C6)CC5)cc23)cc1 [Example 177, 1-[2-(4-{5-[(7S)-7-{3-Oxa-6-azabicyclo[3.1.1]heptan-6-yl}-6,7,8,9-tetrahydro-5H-benzo[7]annulen-2-yl]-1H-pyrazolo[3,4-b]pyridin-3-yl}phenyl)pyridin-3-yl]pyrrolidin-2-one] | < 100 nM | < 100 nM |
| Cn1nccc1-c1ccc(-c2n[nH]c3ncc(-c4ccc5c(c4)CC[C@@H](N4C6COCC4C6)CC5)cc23)cc1 [Example 109, 6-[(7S)-2-{3-[4-(1-Methyl-1H-pyrazol-5-yl)phenyl]-1H-pyrazolo[3,4-b]pyridin-5-yl}-6,7,8,9-tetrahydro-5H-benzo[7]annulen-7-yl]-3-oxa-6-azabicyclo[3.1.1]heptane] | < 100 nM | < 100 nM |
| Cc1ncc(C)c(-c2ccc(-c3c[nH]c4ncc(-c5ccc6c(c5)CC[C@@H](N5C7COCC5C7)CC6)cc34)cc2)n1 [Example 123, 6-[(7S)-2-{3-[4-(2,5-Dimethylpyrimidin-4-yl)phenyl]-1H-pyrrolo[2,3-b]pyridin-5-yl}-6,7,8,9-tetrahydro-5H-benzo[7]annulen-7-yl]-3-oxa-6-azabicyclo[3.1.1]heptane] | < 100 nM | < 100 nM |
| Cc1cccnc1-c1ccc(-c2c[nH]c3ncc(-c4ccc5c(c4)CC[C@@H](N4C6COCC4C6)CC5)cc23)nc1 [Example 96, 3-Methyl-6′-{5-[(7S)-7-{3-oxa-6-azabicyclo[3.1.1]heptan-6-yl}-6,7,8,9-tetrahydro-5H-benzo[7]annulen-2-yl]-1H-pyrrolo[2,3-b]pyridin-3-yl}-2,3′-bipyridine] | < 100 nM | < 100 nM |
| O=C(c1cccnc1-c1ccc(-c2n[nH]c3ncc(-c4ccc5c(c4)CC[C@@H](N4C6COCC4C6)CC5)cc23)cc1)N1CCCC1 [Example 4, 6-[(7S)-2-(3-{4-[3-(Pyrrolidine-1-carbonyl)pyridin-2-yl]phenyl}-1H-pyrazolo[3,4-b]pyridin-5-yl)-6,7,8,9-tetrahydro-5H-benzo[7]annulen-7-yl]-3-oxa-6-azabicyclo[3.1.1]heptane] | 100 to 1000 nM | < 100 nM |
| Cc1cccnc1-c1ccc(-c2n[nH]c3ncc(-c4ccc5c(c4)CC[C@@H](N4C6COCC4C6)CC5)cc23)nc1 [Example 26, 3-Methyl-6′-{5-[(7S)-7-{3-oxa-6-azabicyclo[3.1.1]heptan-6-yl}-6,7,8,9-tetrahydro-5H-benzo[7]annulen-2-yl]-1H-pyrazolo[3,4-b]pyridin-3-yl}-2,3′-bipyridine] | < 100 nM | < 100 nM |

Other lines, results leading:

| IC50 [1] | IC50 [2] | SMILES |
| --- | --- | --- |
| < 100 nM | < 100 nM | Cc1ccnnc1-c1ccc(-c2n[nH]c3ncc(-c4ccc5c(c4)CC[C@@H](N4C6COCC4C6)CC5)cc23)cc1 [Example 176, 6-[(7S)-2-{3-[4-(4-Methylpyridazin-3-yl)phenyl]-1H-pyrazolo[3,4-b]pyridin-5-yl}-6,7,8,9-tetrahydro-5H-benzo[7]annulen-7-yl]-3-oxa-6-azabicyclo[3.1.1]heptane] |
| < 100 nM | < 100 nM | c1ccc(-c2ccc(-c3n[nH]c4ncc(-c5ccc6c(c5)CC[C@@H](N5C7COCC5C7)CC6)cc34)cc2)nc1 [Example 154, 6-[(7S)-2-{3-[4-(Pyridin-2-yl)phenyl]-2H-pyrazolo[3,4-b]pyridin-5-yl}-6,7,8,9-tetrahydro-5H-benzo[7]annulen-7-yl]-3-oxa-6-azabicyclo[3.1.1]heptane] |
| 100 to 1000 nM | < 100 nM | Cc1cc(-c2n[nH]c3ncc(-c4ccc5c(c4)CC[C@@H](N4C6COCC4C6)CC5)cc23)ccc1-c1ccccn1 [Example 159, 6-[(7S)-2-{3-[3-Methyl-4-(pyridin-2-yl)phenyl]-2H-pyrazolo[3,4-b]pyridin-5-yl}-6,7,8,9-tetrahydro-5H-benzo[7]annulen-7-yl]-3-oxa-6-azabicyclo[3.1.1]heptane] |
| < 100 nM | < 100 nM | CC(C)(O)c1ccccc1-c1ccc(-c2n[nH]c3ncc(-c4ccc5c(c4)CC[C@@H](N4C6COCC4C6)CC5)cc23)cn1 [Example 113, 2-[2-(5-{5-[(7S)-7-{3-Oxa-6-azabicyclo[3.1.1]heptan-6-yl}-6,7,8,9-tetrahydro-5H-benzo[7]annulen-2-yl]-1H-pyrazolo[3,4-b]pyridin-3-yl}pyridin-2-yl)phenyl]propan-2-ol] |
| < 100 nM | < 100 nM | CC(C)(C#N)c1cccnc1-c1ccc(-c2c[nH]c3ncc(-c4ccc5c(c4)CC[C@@H](N4C6COCC4C6)CC5)cc23)cc1 [Example 21, 2-Methyl-2-[2-[4-[5-[(7S)-7-(3-oxa-6-azabicyclo[3.1.1]heptan-6-yl)-6,7,8,9-tetrahydro-5H-benzo[7]annulen-3-yl]-1H-pyrrolo[2,3-b]pyridin-3-yl]phenyl]pyridin-3-yl]propanenitrile] |
| < 100 nM | < 100 nM | Cc1nc(-c2ccc(-c3n[nH]c4ncc(-c5ccc6c(c5)CC[C@@H](N5C7COCC5C7)CC6)cc34)cc2)n(C)n1 [Example 23, 6-[(7S)-2-{3-[4-(1,3-Dimethyl-1H-1,2,4-triazol-5-yl)phenyl]-1H-pyrazolo[3,4-b]pyridin-5-yl}-6,7,8,9-tetrahydro-5H-benzo[7]annulen-7-yl]-3-oxa-6-azabicyclo[3.1.1]heptane] |
| < 100 nM | < 100 nM | C[C@H]1COC(=O)N1c1cccnc1-c1ccc(-c2n[nH]c3ncc(-c4ccc5c(c4)CC[C@@H](N4C6COCC4C6)CC5)cc23)cc1 [Example 125, (4S)-4-Methyl-3-[2-(4-{5-[(7S)-7-{3-oxa-6-azabicyclo[3.1.1]heptan-6-yl}-6,7,8,9-tetrahydro-5H-benzo[7]annulen-2-yl]-1H-pyrazolo[3,4-b]pyridin-3-yl}phenyl)pyridin-3-yl]-1,3-oxazolidin-2-one] |
| < 100 nM | < 100 nM | FC(F)Oc1cccnc1-c1ccc(-c2n[nH]c3ncc(-c4ccc5c(c4)CC[C@@H](N4C6COCC4C6)CC5)cc23)cc1 [Example 99, 6-[(7S)-2-(3-{4-[3-(Difluoromethoxy)pyridin-2-yl]phenyl}-1H-pyrazolo[3,4-b]pyridin-5-yl)-6,7,8,9-tetrahydro-5H-benzo[7]annulen-7-yl]-3-oxa-6-azabicyclo[3.1.1]heptane] |
| 100 to 1000 nM | < 100 nM | Cn1nncc1-c1ccc(-c2n[nH]c3ncc(-c4ccc5c(c4)CC[C@@H](N4C6COCC4C6)CC5)cc23)cc1 [Example 13, 6-[(7S)-2-{3-[4-(1-Methyl-1H-1,2,3-triazol-5-yl)phenyl]-1H-pyrazolo[3,4-b]pyridin-5-yl}-6,7,8,9-tetrahydro-5H-benzo[7]annulen-7-yl]-3-oxa-6-azabicyclo[3.1.1]heptane] |
